Conditions: in water

Row | SMILES | solubility (mole fraction) (278.15 K) | solubility (mole fraction) (283.15 K) | solubility (mole fraction) (288.15 K) | solubility (mole fraction) (293.15 K) | solubility (mole fraction) (298.15 K) | solubility (mole fraction) (303.15 K) | solubility (mole fraction) (308.15 K) | solubility (mole fraction) (313.15 K) | solubility (mole fraction) (318.65 K) | solubility (mole fraction) (323.15 K) | solubility (mole fraction) (328.15 K) | solubility (mole fraction) (333.15 K) | solubility (mole fraction) (338.15 K)
1 | O=C(O)/C=C\C(=O)O | 0.0673 | 0.0779 | 0.0869 | 0.0969 | 0.111 | 0.124 | 0.142 | 0.154 | 0.174 | 0.184 | 0.199 | 0.218 | 0.232
2 | O=C(O)CC(O)C(=O)O (stereo unspecified) | 0.112 | 0.121 | 0.132 | 0.145 | 0.158 | 0.168 | 0.181 | 0.198 | 0.209 | 0.231 | 0.248 | 0.269 | 0.294

— BigSolDB 2.1
